Laboratory results reported in ChEMBL document CHEMBL1157321, “Bioactivity profiling using HPLC/microtiter-plate analysis: application to a New Zealand marine alga-derived fungus, Gliocladium sp” (J Nat Prod, 2006).
Calls of active or inactive are those of the source. No cut-off for these calls is given here.

Experiments:
[1] = system: Bacillus subtilis; experiment: Antibacterial activity against Bacillus subtilis at 40 ug/disk; assay type: functional; conditions: for zone of inhibition at 40 µg/disc: read-out: IZ
[2] = system: Trichophyton mentagrophytes; experiment: Antifungal activity against Trichophyton mentagrophytes at 40 ug/disk; assay type: functional; conditions: for zone of inhibition at 40 µg/disc: read-out: IZ
[3] = system: Amorphotheca resinae; experiment: Antifungal activity against Cladosporium resinae at 40 ug/disk; assay type: functional; conditions: for zone of inhibition at 40 µg/disc: read-out: IZ
[4] = system: P388; experiment: Cytotoxicity against mouse P388 cells; assay type: functional, cell-based

SMILES | Activity [1] | Activity [2] | Activity [3] | Activity [4] | zone of inhibition at 40 µg/disc [1] [mm] | zone of inhibition at 40 µg/disc [2] [mm] | IC50 [4] [nM] | zone of inhibition at 40 µg/disc [3] [mm]
CC(C)=CCOc1ccc(C[C@H]2NC(=O)[C@H](C)NC(=O)[C@@H](Cc3ccc(O)cc3)NC(=O)CNC(=O)[C@H](C)NC(=O)[C@H](Cc3ccccc3)OC2=O)cc1 | inactive | inactive | inactive | inactive | – | – | – | –
C[C@@H]1CCC(=O)/C=C/C(=O)O[C@H](C)C(=O)/C=C/C(=O)O1 | – | – | inactive | – | 1 | 1 | 3900 | –
C[C@@H]1CC[C@@H](O)/C=C/C(=O)O[C@H](C)C(=O)/C=C/C(=O)O1 | – | – | – | – | 6 | 2 | 550 | 1
C[C@@H]1CC[C@@H](O)/C=C/C(=O)O[C@H](C)[C@@H](O)/C=C/C(=O)O1 [CLONOSTACHYDIOL] | inactive | inactive | inactive | – | – | – | 25000 | –
C[C@@H]1CCC(=O)/C=C/C(=O)O[C@H](C)[C@@H](O)/C=C/C(=O)O1 | – | – | – | – | 3 | 3 | 1900 | 5
